Results as given in the supplement of paper PMC10883282.

Legend:
Experiment in all cases: standardised AUC of viability dose-response curve (72 h) (fraction (0-1)); higher = less growth inhibition (more resistant)
[1] = system: VA-ES-BJ
Procedure, shortened: (§1)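 Sarcoma cell lines in 384-well plates were treated in triplicate for 72 h with 2.5 µl of compound dilution series (compound-plate series 10 mM to 0.0002 mM, 1:3 steps). ATPLite viability was scaled 1 (full) to 0 (none) and fitted per drug and cell line with a four-parameter log-logistic model. The standardised area under the dose-response curve in log-dose space (modified drexplorer computeAUC) runs from 1 (no response) to 0 (full response).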

[2] = system: A204
Procedure, shortened: as §1

[3] = system: SK-ES-1
Procedure, shortened: as §1

[4] = system: G401
Procedure, shortened: as §1

[5] = system: KHOS-240S
Procedure, shortened: as §1

[6] = system: RD
Procedure, shortened: as §1

[7] = system: SW684
Procedure, shortened: as §1

[8] = system: SW982
Procedure, shortened: as §1

[9] = system: SK-LMS-1
Procedure, shortened: as §1

[10] = system: SW872
Procedure, shortened: as §1

[11] = system: SYO-1
Procedure, shortened: as §1

[12] = system: MES-SA
Procedure, shortened: as §1

[13] = system: RD-ES
Procedure, shortened: as §1

[14] = system: SW1353
Procedure, shortened: as §1

[15] = system: HT1080
Procedure, shortened: as §1

[16] = system: HS729
Procedure, shortened: as §1

[17] = system: KHOS-NP
Procedure, shortened: as §1

In the case of `Cc1cc2cc(Oc3ccnc(Nc4cccc(CS(=O)(=O)NCCN(C)C)c4)n3)ccc2[nH]1` [SULFATINIB], the “standardised AUC” value [1] was 0.987, the “standardised AUC” value [2] was 0.805 and the “standardised AUC” value [3] was 0.955. The “standardised AUC” value [4] was 0.909, the “standardised AUC” value [5] was 0.931 and the “standardised AUC” value [6] was 0.964. The “standardised AUC” value [7] was 0.966, the “standardised AUC” value [8] was 0.924 and the “standardised AUC” value [9] was 0.965. The “standardised AUC” value [10] was 0.96, the “standardised AUC” value [11] was 0.759 and the “standardised AUC” value [12] was 0.95. For the same molecule, the “standardised AUC” value [13] was 0.962, the “standardised AUC” value [14] was 0.97 and the “standardised AUC” value [15] was 0.99. For the same molecule, the “standardised AUC” value [16] was 0.874 and the “standardised AUC” value [17] was 0.982.

For `CO[C@H]1C[C@@H]2CC[C@@H](C)[C@@](O)(O2)C(=O)C(=O)N2CCCC[C@H]2C(=O)O[C@H]([C@H](C)C[C@@H]2CC[C@@H](OCCO)[C@H](OC)C2)CC(=O)[C@H](C)/C=C(\C)[C@@H](O)[C@@H](OC)C(=O)[C@H](C)C[C@H](C)/C=C/C=C/C=C/1C` [CERTICAN], the “standardised AUC” value [1] was 0.604, the “standardised AUC” value [2] was 0.633 and the “standardised AUC” value [3] was 0.684. The “standardised AUC” value [4] was 0.849, the “standardised AUC” value [5] was 0.819 and the “standardised AUC” value [6] was 0.765. The “standardised AUC” value [7] was 0.841, the “standardised AUC” value [8] was 0.728 and the “standardised AUC” value [9] was 0.645. For the same molecule, the “standardised AUC” value [10] was 0.688, the “standardised AUC” value [11] was 0.885 and the “standardised AUC” value [12] was 0.548. For the same molecule, the “standardised AUC” value [13] was 0.76, the “standardised AUC” value [14] was 0.835 and the “standardised AUC” value [15] was 0.962. For the same molecule, the “standardised AUC” value [16] was 0.926 and the “standardised AUC” value [17] was 0.971.

For `COc1cc(OC)c(/C=C/S(=O)(=O)Cc2ccc(OC)c(NCC(=O)O)c2)c(OC)c1` [RIGOSERTIB], the “standardised AUC” value [1] was 0.755, the “standardised AUC” value [2] was 0.779 and the “standardised AUC” value [3] was 0.584. The “standardised AUC” value [4] was 0.852, the “standardised AUC” value [5] was 0.636 and the “standardised AUC” value [6] was 0.712. The “standardised AUC” value [7] was 0.851, the “standardised AUC” value [8] was 0.748 and the “standardised AUC” value [9] was 0.719. For the same molecule, the “standardised AUC” value [10] was 0.854, the “standardised AUC” value [11] was 0.827 and the “standardised AUC” value [12] was 0.681. The “standardised AUC” value [13] was 0.644, the “standardised AUC” value [14] was 0.822 and the “standardised AUC” value [15] was 0.707. For the same molecule, the “standardised AUC” value [16] was 0.882 and the “standardised AUC” value [17] was 0.805.

`CNC(=O)c1ccccc1Sc1ccc2c(/C=C/c3ccccn3)n[nH]c2c1` [AXITINIB] was tested, and the “standardised AUC” value [1] was 0.901, the “standardised AUC” value [2] was 0.545 and the “standardised AUC” value [3] was 0.863. For the same molecule, the “standardised AUC” value [4] was 0.857, the “standardised AUC” value [5] was 0.849 and the “standardised AUC” value [6] was 0.89. For the same molecule, the “standardised AUC” value [7] was 0.954, the “standardised AUC” value [8] was 0.887 and the “standardised AUC” value [9] was 0.975. For the same molecule, the “standardised AUC” value [10] was 0.859, the “standardised AUC” value [11] was 0.669 and the “standardised AUC” value [12] was 0.857. The “standardised AUC” value [13] was 0.926, the “standardised AUC” value [14] was 0.928 and the “standardised AUC” value [15] was 0.963. The “standardised AUC” value [16] was 0.826 and the “standardised AUC” value [17] was 0.93.

In the case of `CC(C)Oc1ccc(-c2nn([C@@H](C)c3oc4ccc(F)cc4c(=O)c3-c3cccc(F)c3)c3ncnc(N)c23)cc1F` [UMBRALISIB], the “standardised AUC” value [1] was 0.982, the “standardised AUC” value [2] was 0.969 and the “standardised AUC” value [3] was 0.985. The “standardised AUC” value [4] was 0.983, the “standardised AUC” value [5] was 0.983 and the “standardised AUC” value [6] was 0.998. For the same molecule, the “standardised AUC” value [7] was 0.937, the “standardised AUC” value [8] was 1 and the “standardised AUC” value [9] was 0.966. For the same molecule, the “standardised AUC” value [10] was 0.987, the “standardised AUC” value [11] was 0.97 and the “standardised AUC” value [12] was 0.989. The “standardised AUC” value [13] was 0.993, the “standardised AUC” value [14] was 0.949 and the “standardised AUC” value [15] was 0.984. For the same molecule, the “standardised AUC” value [16] was 0.939 and the “standardised AUC” value [17] was 0.994.

For `CC1(COc2ccc3c(c2)ncn3-c2ccc3cccc(N4CCC(N)CC4)c3n2)COC1` [CRENOLANIB], the “standardised AUC” value [1] was 0.891, the “standardised AUC” value [2] was 0.653 and the “standardised AUC” value [3] was 0.823. For the same molecule, the “standardised AUC” value [4] was 0.956, the “standardised AUC” value [5] was 0.887 and the “standardised AUC” value [6] was 0.942. The “standardised AUC” value [7] was 0.969, the “standardised AUC” value [8] was 0.853 and the “standardised AUC” value [9] was 0.931. The “standardised AUC” value [10] was 0.93, the “standardised AUC” value [11] was 0.804 and the “standardised AUC” value [12] was 0.903. For the same molecule, the “standardised AUC” value [13] was 0.898, the “standardised AUC” value [14] was 0.917 and the “standardised AUC” value [15] was 0.93. For the same molecule, the “standardised AUC” value [16] was 0.994 and the “standardised AUC” value [17] was 0.886.

In the case of `O=C(Nc1ccc(OC(F)(F)Cl)cc1)c1cnc(N2CC[C@@H](O)C2)c(-c2cc[nH]n2)c1` [ASCIMINIB], the “standardised AUC” value [1] was 0.996, the “standardised AUC” value [2] was 0.947 and the “standardised AUC” value [3] was 0.979. For the same molecule, the “standardised AUC” value [4] was 0.989, the “standardised AUC” value [5] was 0.983 and the “standardised AUC” value [6] was 0.994. The “standardised AUC” value [7] was 0.987, the “standardised AUC” value [8] was 0.987 and the “standardised AUC” value [9] was 0.957. The “standardised AUC” value [10] was 0.997, the “standardised AUC” value [11] was 0.94 and the “standardised AUC” value [12] was 0.975. For the same molecule, the “standardised AUC” value [13] was 0.965, the “standardised AUC” value [14] was 1 and the “standardised AUC” value [15] was 0.969. For the same molecule, the “standardised AUC” value [16] was 0.985 and the “standardised AUC” value [17] was 0.962.
